# Data taken from US10000521B2 (priority 2013, dated 2018).
# Experiments:
# Huh7 cells = assay: TC50 MTS cell viability assay with Huh7 cells (48 h); assay type: cell-based; conditions: Homo sapiens, Huh-7
# From the text: Plating Cells: Huh7 cells (a hepatocellular carcinoma cell-line; these cells can be obtained from the Japanese Collection of Research Bioresources (JCRB), Osaka, Japan) were used to determine the TC50 for representative compounds of the present invention. Briefly, Huh7 cells were passaged when they reached about 70% confluency. The cells were counted using a hemocytometer following dilution of the cells to about 0.5×10^5 cells per mL in DMEM with 10% fetal bovine serum (FBS). The cells were plated in a clear 96-well plate (about 5,000 cells in 100 μL per well). The cells were allowed to attach for about 24 hours at 37° C.
# Treating of the cells: The DMEM media without phenol red containing 2% FBS was pre-warmed to 37° C. […] Following dilution, the final DMSO concentration was about 0.5% (v/v). […] The plates were then returned to the incubator and incubated with the cells for 48 h at 37° C.
# (§1) The 96-well plate with cells incubated with test compound was removed from the 37° C. incubator. The appropriate amounts of the MTS and PMS reagents were removed from the kit and mixed well. The reagents were maintained in the dark due to their light sensitivity. […] The solutions were mixed completely in the wells prior to each reading.
# PK9 cells [1] = assay: TC50 assay with inhibition of ENT1, PK9 cells; assay type: cell-based; conditions: Homo sapiens, PK9, 48 h, PK9 cells (48 h)
# Method: Plating Cells: Huh7 cells or PK9 cells were seeded in 96-well plates at a density of 5,000 cells/well or 2,500 cells/well, respectively, and the plates were incubated at 37° C. for 24 h to allow for cell attachment.
# Treatment with equilibrative nucleoside transporter 1 (ENT1) Inhibitor: The media was then removed from the plates and replaced with media containing 2% FBS, 0.5% DMSO, and either 10 μM dipyramidole or 10 μM S-(4-nitrobenzyl)-6-thioinosine (NBTI).
# Treating with Control & Compound 1: After incubation with the ENT1 inhibitor, the cells were treated with each compound at final concentrations ranging from 500 μM to 0 μM in triplicate in media containing 2% FBS, 0.5% DMSO, and either 10 μM dipyridamole or 10 μM NBTI.
# RPK9 cells = assay: cells; conditions: Homo sapiens, 48 h, read-out: TC50 (μM), 48 h treatment
# Method: (§2) Plating Cells: PK9 or RPK9 cells were seeded in 96-well plates at a density of 2,500 cells/well or 2,500 cells/well, respectively, and the plates were incubated at 37° C. for 24 h to allow for cell attachment.
# (§3) Treating with Control & Compound 1: The cells were treated with each compound at final concentrations ranging from 500 μM to 0 μM in triplicate in media containing 2% FBS and 0.5% DMSO.
# (§4) The RPK9 cells are described in Saiki, T., et al. (2012) Biochim. Biophys. Res. Commun. 421, 98-104).
# [2] = TC50 assay in different human cell lines (96 h), HEK293; assay type: cell-based; conditions: HEK293 cells, about 96 h, MTS assay
# Method: as §1
# (§5) Plating Cells: Huh7, HEPG2, HEK293, MCF-7, or BxPC3 cells (which can be obtained from American Type Culture Collection, ATCC) were passaged when they were about 70% confluent. […] The cells following passaging were allowed to attach for about 24 hours at 37° C.
# (§6) The plates were then returned to the incubator, and cells incubated for about 96 h at 37° C.
# (§7) MTS Assay: Assay was carried out as described above.
# MCF-7 = assay: TC50 assay in different human cell lines (96 h), MCF-7; assay type: cell-based; conditions: MCF7, about 96 h, MTS assay
# Method: as §1, §5, §6, §7
# HEPG2 = assay: TC50 assay in different human cell lines (96 h), HEPG2; assay type: cell-based; conditions: about 96 h, MTS assay
# Method: as §1, §5, §6, §7
# PK9 cells [3] = assay: TC50 assay, effect of deficient deoxycytidine kinase activity, PK9 cells; assay type: cell-based; conditions: Homo sapiens, 48 h, read-out: TC50 (μM), 48 h treatment
# Method: as §2, §3, §4
# CD-1 ICR mice = assay: In vivo toxicology assessment
# Method: All in vivo toxicology assays were performed with CD-1 ICR mice (female, 4-6 week old; 20-30 gram body weight). Groups of one to five mice were treated at each dose level. In one study, compound 1 was prepared at concentrations ranging from 0.1 mg/mL to 30 mg/mL in dimethyl sulfoxide (DMSO) and 200 μL of each solution was administered via oral gavage to mice at final doses of 0.67, 2.0, 6.7, 20, 67 and 200 mg/kg.
# A second study was carried out using a different vehicle. As above, CD-1 ICR mice (female, 4-6 week old; 20-30 gram body weight) were used. Groups of one to five mice were treated at each dose level. Compound 1 was prepared in Formulation I (5% DMSO/10% Solutol/17% (2-Hydroxypropyl)-β-cyclodextrin in aqueous solution) at concentrations ranging from 0.03 mg/mL to 1.0 mg/mL, and administered orally. Briefly, mice were treated with 200 μL of compound 1 in Formulation I via oral gavage at final doses of 2.4 mg/kg and 8.0 mg/kg. In a parallel study, compound 1 was administered intravenously. Briefly, mice were injected with 100 μL of compound 1 in Formulation I at final doses ranging from 0.12 mg/kg to 4.0 mg/kg.
# HCV replicon = assay: IC50 assay with HCV luciferase replicon cell-line; assay type: cell-based; conditions: Hepatitis C virus, Huh-7; Huh7 cell line containing HCV replicon with luciferase reporter, 48 h
# From the text: Plating Cells: The cells used in these assays were a liver-derived Huh7 cell line containing an HCV replicon bearing a luciferase reporter gene. The Huh7 cell-line can be obtained from various sources including the Japanese Collection of Research Bioresources (JCRB), Osaka, Japan. The Huh7 cell line containing an HCV replicon bearing a luciferase reporter gene can be prepared essentially as described by Vrolijk J M, et al. (J Virol Methods. (2003) 110(2):201-9). Cells were passaged when they reached about 70% confluency.
# These 0.5 mM dilutions were then used to further serially dilute the compounds in DMEM+2% FBS+0.5% DMSO to keep the concentration of DMSO in each condition identical.
# The Glo Lysis Buffer and the Bright Glow reagent was allowed to warm to room temperature for about 30 min in the dark. […] The media was removed from cells, and the cells were gently washed with about 100 μL of phosphate buffered saline (PBS). […] It should be noted that luciferin has a half-life of approximately 30 min at room temperature after it is added to the plate. […] The data was saved and used to calculate the percent inhibition of luciferase activity at each drug concentration. […] Curve equation: (m1−m2)/(1+(x/m3)^m4); m1=100; m2=0.01; m3=0.01; m4=0.01; the equation is: […]
compound,measurement,setting,value
"O=C(Nc1ccn(C2O[C@H](CO)[C@@H](O)C2(F)F)c(=O)n1)c1ccc2c(c1)OCO2 (stereo partly drawn) [Compound 1, N-(1-((4R,5R)-3,3-difluoro-4-hydroxy-5-(hydroxymethyl)tetrahydrofuran-2-yl)-2-oxo-1,2-dihydropyrimidin-4-yl)benzo[d][1,3]dioxole-5-carboxamide]",CC50,Huh7 cells,473 ± 74 µM
same,CC50,PK9 cells [1]; 10 μM NBTI,2.92 ± 0.41 µM
same,CC50,PK9 cells [1]; 10 μM dipyridamole,0.61 ± 0.31 µM
same,CC50,PK9 cells [1]; ENT1 inhibitor: None,1.63 ± 0.1 µM
same,CC50,RPK9 cells,> 500 µM
same,CC50 at 96 h,[2],4.09 µM
same,CC50,MCF-7,1.19 µM
same,CC50,HEPG2,2.81 µM
same,CC50,PK9 cells [3],1.63 ± 0.1 µM
same,tolerability / toxicity,"CD-1 ICR mice; IV in Formulation I, 0.12 to 4.0 mg/kg, 48 hour observation",well-tolerated and no toxicity was observed
same,tolerability / toxicity,"CD-1 ICR mice; oral gavage in DMSO, 0.67-200 mg/kg, 24 hour observation",well-tolerated and no toxicity was observed
same,tolerability / toxicity,"CD-1 ICR mice; oral gavage in Formulation I, 2.4 and 8.0 mg/kg, 48 hour observation",well-tolerated and no toxicity was observed
same,IC50,HCV replicon,0.06 ± 0.008 µM
